Results taken from patent US12295968B2, “Compositions and methods for targeted immunomodulatory antibodies and fusion proteins” (The Johns Hopkins University, priority 2010, dated 2025).
“Also recorded” adds a separate entry of the source. Each block holds one compound with its values, some of them ahead of it.

Key:
[1] = tested on: mouse MB49 bladder cancer cells; assay: Surface exposure of calreticulin (CRT), immunofluorescence cytometry; type: cell-based; conditions: 4 h
[2] = tested on: human SW780 bladder cancer cells; assay: as above; type: cell-based; conditions: doxorubicin 10 μM, 4 h
[3] = tested on: MB49 tumor cells; assay: Priming of tumor-reactive immune responses: IFN-γ production by draining lymph node (DLN) cells on in vitro re-challenge; type: in vivo, C57BL/6 mice; conditions: intratumoral doxorubicin 10 μg at d10 following tumor inoculation, established tumors
[4] = tested on: MB49 tumors; assay: Intratumoral doxorubicin in mice with pre-established MB49 tumors, tumor growth; type: in vivo, C57BL/6 mice
[5] = tested on: tumor-reactive CD8^+ T cells; assay: Flow cytometry of IFN-γ expression in CD8^+ T cells from tumor and draining lymph node, stimulation with MB49 cell lysates; type: in vivo, C57BL/6 mice
From the text: (§1) (FIG. 55A) In vivo depletion of tumor-infiltrating CD4^+CD25^+FoxP3^+ T cells by treatment of tumor-bearing mice with anti-CD4 antibody. C57BL/6 mice injected with 5×10^5 MB49 tumor cells s.c. were left untreated (control) or administered an anti-CD4 antibody (Clone GK1.5) i.p. at 5 d and 9 d following tumor challenge. CD4^+CD25^+FoxP3^+ T cells infiltrating tumors isolated from mice at d16 following tumor challenge were detected by flow cytometry. […] Flow cytometric analyses of peripheral blood mononuclear cells isolated from mice at d16 following tumor challenge determined the percentage of CD4^+ T cells or CD8^+ T cells among total mononuclear cells, and the percentage of CD4^+CD25^+FoxP3^+ T cells among total CD4^+ T cells. […] Tumor-reactive immune responses were determined by flow cytometric analyses of IFN-γ expression in CD8^+ T cells from the tumor and draining lymph node in response to in vitro stimulation with MB49 cell lysates. […] Tumor volume was monitored to determine the effect of depleting either CD4^+ T cells or CD8^+ T cells on the in vivo antitumor efficacy of doxorubicin. […]

[6] = tested on: MB49 tumors; assay: MB49 tumor volume, chemotherapy with or without anti-CD4 or anti-CD8 antibody; type: in vivo, C57BL/6 mice
From the text: as §1

[7] = tested on: mouse NKG2D ligands (Rae-1); assay: Quantitative real-time PCR of Rae1 transcripts in CT26 cells; type: cell-based; conditions: irinotecan 25 μg/ml or oxaliplatin 10 μg/ml
[8] = tested on: human NKG2D ligands (MICA/MICB); assay: Flow cytometry of cell surface MICA/B on HCT116 cells; type: cell-based; conditions: irinotecan 25 μg/ml, 16 h
[9] = tested on: CT26 tumors; assay: CT26 tumor volume, irinotecan with or without NKG2D blocking, anti-CD4 and/or anti-CD8 antibody; type: in vivo, Balb/C mice; conditions: irinotecan alone

SMILES: COc1cccc2c1C(=O)c1c(O)c3c(c(O)c1C2=O)C[C@@](O)(C(=O)CO)C[C@@H]3O[C@H]1C[C@H](N)[C@H](O)[C@H](C)O1 [doxorubicin]
- surface exposure of CRT ([1]; doxorubicin 10 μM): induced rapid surface exposure of CRT; also recorded: efficient translocation of CRT to the cell surface
- surface exposure of CRT [2]: induced rapid surface exposure of CRT
- IFN-γ secretion by DLN cells on re-challenge with MB49 cell lysates [3]: failed to induce a corresponding increase in IFN-γ secretion
- tumor growth ([4]; intratumoral doxorubicin 10 μg on d3 following tumor inoculation): able to arrest tumor growth
- tumor growth ([4]; intratumoral doxorubicin 10 μg on d10 following tumor inoculation): failed to inhibit the progressive growth
- IFN-γ^+CD8^+ T cells ([5]; doxorubicin alone, 5 mg/kg i.p. weekly×3 from d7, 5 mg/kg): IFN-γ^+CD8^+ T cells became evident; also recorded: tumor-reactive IFN-γ^+CD8^+ T cells were evident
- growth of MB49 tumors ([6]; doxorubicin alone, 5 mg/kg i.p. weekly×3): inhibited the growth of MB49 tumors but failed to arrest tumor progression

SMILES: O=C1[O][Pt]2([NH][C@@H]3CCCC[C@H]3[NH]2)[O]C1=O [oxaliplatin]
- time after which Rae1 mRNA began to decline [7]: 48 h

SMILES: N.N.[Cl][Pt][Cl] [cisplatin]
- CRT exposure compared to doxorubicin ([1]; equitoxic doses): less effective in increasing CRT exposure
- IFN-γ expression in CD8^+ T cells ([5]; cisplatin alone, 0.5 mg/kg i.p. weekly×4 from d7): unable to induce a corresponding elevation of IFN-γ expression
- growth of MB49 tumors ([6]; cisplatin alone, 0.5 mg/kg i.p. weekly×4): partially inhibited tumor growth but failed to arrest tumor progression

- cell surface expression of MICA, MICB ([8]; HCT116 cells): upregulated
- p53 dependence of upregulation of MICA/B ([8]; isogenic p53^+/+ and p53^−/− HCT116 cells): p53 is not required
SMILES: CCc1c2c(nc3ccc(OC(=O)N4CCC(N5CCCCC5)CC4)cc13)-c1cc3c(c(=O)n1C2)COC(=O)[C@]3(O)CC [irinotecan]
- time after which Rae1 mRNA began to decline [7]: 48 h
- growth of CT26 tumors ([9]; 50 mg/kg i.p. weekly×3 from d5): inhibited the growth of CT26 tumors
- growth of CT26 tumors ([9]; 50 mg/kg i.p. weekly×3 from d7): only slowed tumor growth
